Reference: patent US7517657B2, “Peptides for detecting anti-double stranded DNA antibody and uses thereof” (Albert Einstein College of Medicine of Yeshiva University, priority 1995, dated 2009)
Entries after “also recorded” stand apart in the source; their conditions may differ. Square brackets hold non-standard residues; d marks the D form. Ends that are not written are not given here.

Key:
R4A binding to dsDNA = assay: Peptide inhibition of R4A binding to dsDNA by ELISA; parameters: species or system mouse; conditions: fluid phase inhibitor, FIG. 3, FIG. 4
Description: FIG. 3 depicts peptide inhibition of R4A (1 μg/ml) binding to calf thymus double stranded DNA by Enzyme Linked ImmunoSorbent Assay.
FIG. 4 sets forth a graph representing DWEYS (L and D peptides) (SEQ ID NO:2) inhibition of R4A binding to dsDNA. IMMULON® II plates were coated overnight with 100 μg/ml salmon sperm dsDNA. R4A at a final concentration of 5 μg/ml was incubated at varying concentrations of L or D DWEYS (SEQ ID NO:2) and transferred to the plate precoated with dsDNA. After a 2-hr incubation at 37° C., the plates were washed, and alkaline phosphotase-linked goat anti-mouse IgG2b antibody was added for 1 hour at 37° C. OD after addition of substrate was monitored at 405 nm.

[1] = system: production of anti-dsDNA antibodies; assay: Immunization of nonautoimmune BALB/c mice with peptide in complete Freund's adjuvant; type: in vivo; conditions: unpublished work
From the text: It is also noteworthy that both the R4A and 52b3 peptides have aromatic residues, tryptophan and tyrosine. […] This apparent difference in specificity is consistent with the finding that they bind distinct peptides. It is also noteworthy that both the R4A and 52b3 consensus motifs have aromatic residues, tryptophan and tyrosine. It is tempting to speculate that the negatively charged aspartate and glutamate residues are analogous to phosphate groups, the aromatic tryptophan residues are analogous to the pentose sugar backbone, and the tyrosine and serine residues are analogous to the hydroxyl groups attached to the pentose moiety in the DNA molecule, thus explaining why these peptides are mimics of DNA. One potential utility of identifying peptide mimotopes for dsDNA is to try to determine if the actual eliciting antigen for production of these antibodies or target antigen for deposition in kidneys might be a protein molecule. […] It is interesting to speculate whether the murine homolog of chicken collagen XIV also has a splice variant containing the same or highly homologous peptide sequence that would be recognized by the R4A antibody.

52b3 binding to dsDNA = assay: Peptide inhibition of 52b3 binding to dsDNA by ELISA; parameters: species or system mouse; conditions: fluid phase peptide, FIG. 3
Description: To determine whether peptide and dsDNA bound within the same antigen binding site of each antibody, inhibition assays were performed with specific peptides. […] These were used in fluid phase to inhibit the binding of antibody to dsDNA. Two peptides, Asp-Trp-Glu-Tyr-Ser-Val-Trp-Leu-Ser-Asn (SEQ ID NO:1) and Asp-Trp-Glu-Tyr-Ser (SEQ ID NO:2), were chosen as the R4A specific epitope; the 52b3 specific peptide was Arg-His-Glu-Asp-Gly-Asp-Trp-Pro-Arg-Val (SEQ ID NO:7).

[2] = molecular target: phage clone φ3-3, no insert (UniProt P03661); assay: phage ELISA, antibody coated, no-insert control phage added, anti-M13 detection
[3] = system: R4A deposition in glomeruli; assay: Assay of anti-dsDNA antibody (R4A) glomerular deposition in SCID mice; type: in vivo; conditions: 75 μg R4A and 150 μg peptide i.p., IgG immunostaining, FIG. 5
Description: FIG. 5 sets forth kidney sections exemplifying peptide inhibition of R4A deposition in glomeruli. R4A (75 μg) and peptide (150 μg) were injected i.p. into SCID mice. Mice were killed 16 hours later, and the kidneys immunostained for IgG deposition. […] FIG. 5B sets forth a representative section from a mouse injected with R4A, and the R4A- specific D peptide DWEYS (SEQ ID NO:2).
Glomerular deposition of the nephritogenic R4A antibody was examined by injecting purified antibody into SCID mice. R4A was obtained from cell culture supernatants or from ascites of mice injected with the cell line. Antibody was purified on a protein G column (Gamma Bind, Pharmacia). SCID mice were obtained from the breeding colony maintained at the Albert Einstein College of Medicine. Six- to eight-week old female mice were used in the experiments. Anti-dsDNA antibodies and IgG2b levels were undetectable in these mice before injection. Individual mice were simultaneously injected i.p. with 75 μg of purified R4A and 150 μg of the appropriate peptide. The mice were killed 16 hours after the injection of antibody.
One kidney from each animal was fixed in 10% formalin and embedded in paraffin. […]

[4] = system: R4A anti-dsDNA monoclonal antibody; assay: ELISA binding of monoclonal antibody R4A to phage clones; parameters: species or system mouse; conditions: R4A selected phage, Table 2
Description: FIG. 1 is comprised of FIGS. 1A, 1B and 1C, and depicts the binding by Enzyme Linked ImmunoSorbent Assay of monoclonal antibodies R4A (FIG. 1A), 95 (FIG. 1B) and 52b3 (FIG. 1C) to phage clones. In each figure, the shaded columns are R4A-selected phage and unshaded columns are 52b3-selected phage.
Binding of antibodies to phage was determined by Enzyme-Linked ImmunoSorbent Assay (ELISA). Microtiter plates (Becton Dickinson, Lincoln Park, N.J.) were coated with 50 μl of antibody (1 μg/ml unless otherwise specified) in TBS (Tris/10 mM HCl pH 7.5, 150 mM NaCl) overnight at 4° C. Plates were washed 3 times with TBS/0.05% TWEEN® 20. Approximately 2.5×10^10 purified phage in 50 μl TBS were added to each well, incubated for 2 hours at 37° C., washed, and then were blocked with 150 μl of TBS/2% BSA for 1 hour at 37° C. Plates were incubated with 50 μl of a 1:4000 dilution in TBS of biotinylated sheep antibody to M13 phage (5′->3′, Inc., Boulder, Colo.) for 1 hour at 37° C. Plates were washed again and incubated with a 1:4000 dilution of […] streptavidin (Southern Biotech. Assoc. Inc., Birmingham, Ala.) and developed with Sigma-104 substrate tablets (Sigma Chemical Co.). Optical density was read at 405 nm.

Sequence of UniProt P03661 (P03661 19-424 limits assumed): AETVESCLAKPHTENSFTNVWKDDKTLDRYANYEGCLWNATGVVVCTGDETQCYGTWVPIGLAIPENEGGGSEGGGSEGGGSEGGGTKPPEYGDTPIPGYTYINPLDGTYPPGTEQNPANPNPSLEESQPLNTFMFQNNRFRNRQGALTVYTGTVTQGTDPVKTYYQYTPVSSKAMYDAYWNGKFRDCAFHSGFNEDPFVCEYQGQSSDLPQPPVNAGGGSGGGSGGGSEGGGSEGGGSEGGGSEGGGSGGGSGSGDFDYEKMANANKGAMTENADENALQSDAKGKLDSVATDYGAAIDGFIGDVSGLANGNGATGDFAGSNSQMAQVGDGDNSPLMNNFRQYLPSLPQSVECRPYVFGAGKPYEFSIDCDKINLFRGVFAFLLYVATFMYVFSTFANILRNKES

Substance	Inhibition of R4A binding to dsDNA (R4A binding to dsDNA)	Binding O.D. 405 nm [4]	also measured
Asp-Trp-Glu-Tyr-Ser (DWEYS; printed: Asp-Trp-Glu-Tyr-Ser)	inhibited dsDNA binding by the appropriate antibody only	–	Production of anti-dsDNA antibodies after immunization [1]: leads to production of anti-dsDNA antibodies
RHEDGDWPRV [52b3 specific peptide]	–	–	Inhibition of 52b3 binding to dsDNA (52b3 binding to dsDNA): inhibited dsDNA binding by the appropriate antibody only
monoclonal antibody R4A (mouse anti-dsDNA antibody)	–	–	Binding O.D. 405 nm [2]: 0.1 O.D. 405 nm
DWEYSVWLSN [R4A specific peptide]	inhibited dsDNA binding by the appropriate antibody only	–	–
DWEYS [D peptide DWEYS] (Ac-[dD][dW][dE][dY][dS]-NH2; SMILES CC(=O)N[C@H](CC(=O)O)C(=O)N[C@H](Cc1c[nH]c2ccccc12)C(=O)N[C@H](CCC(=O)O)C(=O)N[C@H](Cc1ccc(O)cc1)C(=O)N[C@H](CO)C(N)=O) [R4A-specific peptide DWEYS made from D amino acids]	inhibited the binding of R4A to dsDNA	–	Inhibition of R4A deposition in glomeruli / kidney [3]: markedly inhibited the deposition of R4A in the kidney; also recorded: only the D peptide conferred renal protection in vivo
Y S D W D Y S E G L (YSDWDYSEGL; displayed on phage; peptide (1)..(10) randomly-selected sequence obtained by biopanning a decapeptide library with R4A) [φ1-10]	–	1.1	–
V P V C D W E L N C (VPVCDWELNC; displayed on phage; peptide (1)..(10) randomly-selected sequence obtained by biopanning a decapeptide library with R4A) [φ7-26]	–	0.4	–
DWEYS [L peptide DWEYS, R4A-specific L peptide DWEYS]	showed greater maximal inhibition; also recorded: inhibited the binding of R4A to dsDNA; also recorded: inhibited dsDNA better than the D peptide in vitro	–	Inhibition of R4A deposition in glomeruli / kidney [3]: More anti-dsDNA antibody is present in glomeruli; also recorded: did not
W C E A D Y G R C P (WCEADYGRCP; displayed on phage; peptide (1)..(10) randomly-selected sequence obtained by biopanning a decapeptide library with R4A) [φ7-21]	–	1.3	–
